Test results: PubChem BioAssay (NCI)
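Cells were grown in 96-well plates and exposed to each compound for 48 hours at five concentrations; endpoints were interpolated linearly between bracketing concentrations, or set to the highest concentration if not reached. TGI: concentration producing complete growth inhibition.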

Tests used:
Test in all cases: NCI anticancer screen, dose series, 48 h
BT-549 breast = system: BT-549 breast
SNB-75 CNS = system: SNB-75 CNS
A549 NSCLC = system: A549 NSCLC
KM12 colon = system: KM12 colon
T-47D breast = system: T-47D breast
CAKI-1 renal = system: CAKI-1 renal
SN12C renal = system: SN12C renal
RXF 393 renal = system: RXF 393 renal
HCT-116 colon = system: HCT-116 colon
ACHN renal = system: ACHN renal
HOP-92 NSCLC = system: HOP-92 NSCLC

Question: What does the source list for `C[C@H](CCC(=O)O)[C@H]1CC[C@H]2[C@@H]3CC[C@@H]4C[C@H](O)CC[C@]4(C)[C@H]3C[C@H](O)[C@]12C`?
Answer: TGI (BT-549 breast): > 100 µM; TGI (SNB-75 CNS): > 100 µM; TGI (A549 NSCLC): > 100 µM; TGI (KM12 colon): > 100 µM; TGI (T-47D breast): 91.2 µM; TGI (CAKI-1 renal): > 100 µM; TGI (SN12C renal): > 100 µM; TGI (RXF 393 renal): > 100 µM; TGI (HCT-116 colon): > 100 µM; TGI (ACHN renal): > 100 µM

Question: How did the TGI (BT-549 breast) turn out when `COc1ccc(S(=O)(=O)c2nnc(S(=O)(=O)Cc3ccccc3)s2)cc1` was run?
Answer: 49.8 µM

Question: And the TGI (SNB-75 CNS)?
Answer: 31.8 µM

Question: And the TGI (A549 NSCLC)?
Answer: 49.3 µM

Question: And the TGI (KM12 colon)?
Answer: > 100 µM

Question: And the TGI (T-47D breast)?
Answer: 91.9 µM

Question: And the TGI (CAKI-1 renal)?
Answer: 39.3 µM

Question: And the TGI (SN12C renal)?
Answer: 52.9 µM

Question: What about the TGI (RXF 393 renal) of the same molecule?
Answer: 31.2 µM

Question: What about the TGI (HCT-116 colon) of the same molecule?
Answer: 38.1 µM

Question: And the TGI (ACHN renal)?
Answer: 30.6 µM

Question: `COc1cc2c(C)cc(O)cc2c2cc(O)c(C)cc12` was tested. Which TGI (BT-549 breast) did it give?
Answer: 23 µM

Question: And the TGI (A549 NSCLC)?
Answer: 23.8 µM

Question: And the TGI (KM12 colon)?
Answer: 20.2 µM

Question: And the TGI (T-47D breast)?
Answer: 20.5 µM

Question: What about the TGI (CAKI-1 renal) of the same molecule?
Answer: 22.4 µM

Question: What about the TGI (SN12C renal) of the same molecule?
Answer: 19.8 µM

Question: And the TGI (RXF 393 renal)?
Answer: 22.9 µM

Question: What about the TGI (HCT-116 colon) of the same molecule?
Answer: 20.7 µM

Question: And the TGI (HOP-92 NSCLC)?
Answer: 22.3 µM

Question: What about the TGI (ACHN renal) of the same molecule?
Answer: 22.6 µM

Question: `Cc1ccnc2[nH]c3ccccc3c(=O)c12` was tested. Which TGI (BT-549 breast) did it give?
Answer: 86.7 µM

Question: What about the TGI (SNB-75 CNS) of the same molecule?
Answer: 32.1 µM

Question: And the TGI (KM12 colon)?
Answer: 50.3 µM

Question: And the TGI (T-47D breast)?
Answer: > 100 µM

Question: And the TGI (CAKI-1 renal)?
Answer: 38.5 µM

Question: What about the TGI (SN12C renal) of the same molecule?
Answer: 52.4 µM

Question: What about the TGI (RXF 393 renal) of the same molecule?
Answer: 41.8 µM

Question: And the TGI (HCT-116 colon)?
Answer: > 100 µM

Question: And the TGI (HOP-92 NSCLC)?
Answer: > 100 µM

Question: What about the TGI (ACHN renal) of the same molecule?
Answer: > 100 µM

Question: What does the source list for `Nc1nc(N)c2c3c(cnc2n1)CC(c1ccccc1)CC3` (centres undefined)?
Answer: TGI (BT-549 breast): 81.8 µM; TGI (SNB-75 CNS): 35.9 µM; TGI (A549 NSCLC): > 100 µM; TGI (KM12 colon): > 100 µM; TGI (T-47D breast): 56.8 µM; TGI (CAKI-1 renal): > 100 µM; TGI (SN12C renal): 53.3 µM; TGI (RXF 393 renal): 47.9 µM; TGI (HCT-116 colon): 32.5 µM; TGI (ACHN renal): 31.7 µM

Question: `CCCCCCOC(=O)/C=C/[C@]1(CO)C/C(=C/CC(C(C)C)C(C)C)C(=O)O1` was tested. Which TGI (BT-549 breast) did it give?
Answer: 22.9 µM

Question: And the TGI (SNB-75 CNS)?
Answer: 27.7 µM

Question: What about the TGI (A549 NSCLC) of the same molecule?
Answer: 18.4 µM

Question: What about the TGI (KM12 colon) of the same molecule?
Answer: 33.3 µM

Question: And the TGI (T-47D breast)?
Answer: 37.5 µM

Question: And the TGI (CAKI-1 renal)?
Answer: 23.7 µM

Question: And the TGI (RXF 393 renal)?
Answer: 36.9 µM

Question: And the TGI (HCT-116 colon)?
Answer: 25.9 µM

Question: And the TGI (HOP-92 NSCLC)?
Answer: 25.4 µM

Question: What about the TGI (ACHN renal) of the same molecule?
Answer: 20.7 µM

Question: With `CSc1nc(Nc2cccc(C(F)(F)F)c2)c2c(N)nn(C)c2n1` as the molecule, how does the TGI (BT-549 breast) read?
Answer: > 100 µM

Question: And the TGI (SNB-75 CNS)?
Answer: > 100 µM

Question: And the TGI (A549 NSCLC)?
Answer: > 100 µM

Question: What about the TGI (KM12 colon) of the same molecule?
Answer: > 100 µM

Question: What about the TGI (T-47D breast) of the same molecule?
Answer: > 100 µM

Question: What about the TGI (CAKI-1 renal) of the same molecule?
Answer: > 100 µM

Question: What about the TGI (SN12C renal) of the same molecule?
Answer: > 100 µM

Question: What about the TGI (RXF 393 renal) of the same molecule?
Answer: > 100 µM

Question: What about the TGI (HCT-116 colon) of the same molecule?
Answer: > 100 µM

Question: And the TGI (ACHN renal)?
Answer: > 100 µM

Question: Which TGI (BT-549 breast) does the source give for `O=C(/C=C/c1cc2ccccc2o1)N1CCN(c2ccccn2)CC1` here?
Answer: > 100 µM

Question: And the TGI (A549 NSCLC)?
Answer: > 100 µM

Question: And the TGI (KM12 colon)?
Answer: > 100 µM

Question: And the TGI (T-47D breast)?
Answer: > 100 µM

Question: And the TGI (CAKI-1 renal)?
Answer: > 100 µM

Question: What about the TGI (SN12C renal) of the same molecule?
Answer: > 100 µM

Question: What about the TGI (RXF 393 renal) of the same molecule?
Answer: > 100 µM

Question: What about the TGI (HCT-116 colon) of the same molecule?
Answer: > 100 µM

Question: And the TGI (HOP-92 NSCLC)?
Answer: > 100 µM
